Results: patent US20240116945A1, “EXATECAN-DERIVED TOPOISOMERASE-1 INHIBITORS PHARMACEUTICAL COMPOSITIONS, AND USES THEREOF” (Merck Sharp & Dohme LLC, priority 2022, published 2024)

Tested on: Jeko-1 cells
Assay: CellTiter-Glo 2.0 Cytotoxicity Assay
Assay type: cell-based
Settings: Homo sapiens, JeKo-1, read-out: Jeko-1 EC50 (nM), Jeko-1 cells, 3000 cells/well; compounds added Day 1; CellTiter-Glo 2.0 luminescence read on Day 4 or 5
Description: Reaction progress and synthetic intermediate analysis were assessed by LCMS (UV detection with ESI, APCI, or other mass detection) when applicable using a MeCN/water gradient with either TFA, formic acid, or NH4HCO3 modifier. Silica gel and reverse-phase flash column chromatography were conducted with commercially available pre-packed columns. Reverse-phase preparative HPLC purification was performed on preparative HPLC instruments with UV and MS detection using a MeCN/water gradient with either TFA, formic acid, or NH4OH modifier. ^1H NMR spectra were collected at room temperature, and chemical shifts are reported in ppm relative to the residual proteo-solvent signals, and multiplicities, coupling constants (where applicable), and signal integrations are listed parenthetically. Unless otherwise noted, all EC50 data presented in tables refers to the CellTiter-Glo® 2.0 Cytotoxicity Assay that is described in the Biological Assay section.
CellTiter-Glo® 2.0 Cytotoxicity Assay
Step 1: Seed 384-Well Plates for Assay (45 μL Per Well) on Day 0
Jeko-1 cells were quickly thawed in a cryo-vial by incubating them in a 37° C. water bath for <1 min until there is just a small bit of ice left in the vial. The vial was promptly removed and wiped down with 70% ethanol. The cells were transferred from the vial to a sterile centrifuge tube containing 8 mL of pre-warmed cell culture medium. The vial was flushed with an additional 1 mL of medium to ensure complete transfer of cells to the centrifuge tube. The cells were then centrifuged at 150×g for 5 minutes. The supernatant was aspirated, and the cell pellet was resuspended in 10-20 mL cell culture medium. Cells were counted using Vi-cell and prepared 6.6×10^4 cells/ml, 3000 cells/45 μL per well. Then added 45 μL/well of cells into Corning® 384-well Low Flange White Flat Bottom Polystyrene TC-treated Microplates (Corning, Cat #3570) using Standard Cassette Combi (if needed, dispense 1 dummy plate at 20 μL to help normalize Combi, using medium speed). The plates were spun down at 150×g for 30 seconds.
Step 2: Add Compounds on Day 1
The compound plates and reference compound stock were taken out and allowed to thaw at RT. The tubes were centrifuged at 2000×g for 30 seconds. The 10× Intermediate assay plates (Greiner plate, Cat #781280) were prepared using an Echo liquid handler. Proper buffer (HBSS (Gibco, Cat #14025-092)+10 mM HEPES (Gibco, Cat #15630-080)+0.1% BSA (Sigma, Cat #A9576)) were used to make serial dilutions. Media (no cells) was used for Max_E. Compound (5 μL of 10×) was transferred from intermediate plate to assay plate using a Bravo liquid handler using a very slow speed so the cell monolayer wasn't disturbed. The plates were spun down at 150×g for 30 seconds.
Step 3: CellTiter-Glo 2.0 Assay (Promega, Cat #G9242) on Day 4 or 5 (CellTiter-Glo Kit Stored at −70° C.)
The CellTiter-Glo® 2.0 Reagent was thawed at 4° C. overnight, taking care not to expose the reagent to temperatures above 25° C.). The kit was equilibrated to RT for approximately 30 minutes. CellTiter-Glo® 2.0 Reagent (20 μl) was added to 50 μl of medium containing cells using Standard Cassette Combi. The contents were mixed for 2-3 minutes on an orbital shaker to induce cell lysis. The plates were spun down at 150×g for 30 seconds. The plates were allowed to incubate at RT for 5 minutes to stabilize the luminescent signal.
Illustrative compounds of the present disclosure were tested in the above assay in Example 15, and results are provided in the Table 9 below: […]

SMILES | EC50 [nM]
CC[C@@]1(O)C(=O)OCc2c1cc1n(c2=O)Cc2c-1nc1cc(F)c(C)c3c1c2[C@@H](NC(=O)[C@H](O)CCO)CC3 (single isomer, unassigned) [Compound 1] | 1.4
CC[C@@]1(O)C(=O)OCc2c1cc1n(c2=O)Cc2c-1nc1cc(F)c(C)c3c1c2[C@@H](NC(=O)C(F)(F)C(C)O)CC3 (single isomer, unassigned) [Compound 7] | 1.7
CC[C@@]1(O)C(=O)OCc2c1cc1n(c2=O)Cc2c-1nc1cc(F)c(C)c3c1c2[C@@H](NC(=O)C(CO)C(F)(F)F)CC3 (single isomer, unassigned) [Compound 10] | 4.4
CC[C@@]1(O)C(=O)OCc2c1cc1n(c2=O)Cc2c-1nc1cc(F)c(C)c3c1c2[C@@H](NC(=O)C(N)C(F)(F)F)CC3 (single isomer, unassigned) [Compound 14] | 2.8
CC[C@@]1(O)C(=O)OCc2c1cc1n(c2=O)Cc2c-1nc1cc(F)c(C)c3c1c2[C@@H](NC(=O)C(C)(N)C(F)(F)F)CC3 (single isomer, unassigned) [Compound 16] | 1.6
CC[C@@]1(O)C(=O)OCc2c1cc1n(c2=O)Cc2c-1nc1cc(F)c(C)c3c1c2[C@@H](NC(=O)C(CO)C1CC1)CC3 (single isomer, unassigned) [Compound 22] | 4.3
CC[C@@]1(O)C(=O)OCc2c1cc1n(c2=O)Cc2c-1nc1cc(F)c(C)c3c1c2[C@@H](NC(=O)C(C)(F)CO)CC3 (single isomer, unassigned) [Compound 36] | 2.4
CC[C@@]1(O)C(=O)OCc2c1cc1n(c2=O)Cc2c-1nc1cc(F)c(C)c3c1c2[C@@H](NC(=O)C(C)(CCO)C(F)F)CC3 (single isomer, unassigned) [Compound 39] | 4.9
CC[C@@]1(O)C(=O)OCc2c1cc1n(c2=O)Cc2c-1nc1cc(F)c(C)c3c1c2[C@@H](NC(=O)[C@@H](O)CCO)CC3 [Compound 2] | 6.6
CC[C@@]1(O)C(=O)OCc2c1cc1n(c2=O)Cc2c-1nc1cc(F)c(C)c3c1c2[C@@H](NC(=O)[C@H](O)C(C)(C)CO)CC3 [Compound 3] | 4.1
CC[C@@]1(O)C(=O)OCc2c1cc1n(c2=O)Cc2c-1nc1cc(F)c(C)c3c1c2[C@@H](NC(=O)C(C)(CO)CO)CC3 [Compound 6] | 2.9
CC[C@@]1(O)C(=O)OCc2c1cc1n(c2=O)Cc2c-1nc1cc(F)c(C)c3c1c2[C@@H](NC(=O)C(F)(F)CO)CC3 [Compound 9] | 4
CC[C@@]1(O)C(=O)OCc2c1cc1n(c2=O)Cc2c-1nc1cc(F)c(C)c3c1c2[C@@H](NC(=O)C(C)(N)C(F)F)CC3 (stereo partly drawn) [Compound 13] | 4.2
CC[C@@]1(O)C(=O)OCc2c1cc1n(c2=O)Cc2c-1nc1cc(F)c(C)c3c1c2[C@@H](NC(=O)C(C)(N)C1CC1)CC3 (stereo partly drawn) [Compound 20] | 5.2
CC[C@@]1(O)C(=O)OCc2c1cc1n(c2=O)Cc2c-1nc1cc(F)c(C)c3c1c2[C@@H](NC(=O)[C@H](O)CCOC(F)F)CC3 [Compound 21, (R)-4-(difluoromethoxy)-N-((1S,9S)-9-ethyl-5-fluoro-9-hydroxy-4-methyl-10,13-dioxo-2,3,9,10,13,15-hexahydro-1H,12H-benzo[de]pyrano[3′,4′: 6,7]indolizino[1,2-b]quinolin-1-yl)-2-hydroxybutanamide] | 3.6
CC[C@@]1(O)C(=O)OCc2c1cc1n(c2=O)Cc2c-1nc1cc(F)c(C)c3c1c2[C@@H](NC(=O)[C@@H](O)CO)CC3 [Compound 28, (1S,9S)-1-((S)-2,3-dihydroxypropanamido)-9-ethyl-5-fluoro-9-hydroxy-4-methyl-10,13-dioxo-2,3,9,10,13,15-hexahydro-1H,12H-benzo[de]pyrano[3′,4′: 6,7]indolizino[1,2-b]quinolin-7-ium hexafluorophosphate (V)] | 9.7

Same assay, conditions: Homo sapiens; Jeko-1 cells, 3000 cells/well; compounds added Day 1; CellTiter-Glo 2.0 luminescence read on Day 4 or 5; read-out: Jeko-1 EC50

SMILES | EC50 [nM]
CC[C@@]1(O)C(=O)OCc2c1cc1n(c2=O)Cc2c-1nc1cc(F)c(C)c3c1c2[C@@H](NC(=O)C(C)(C)CO)CC3 [Compound 24, N-((1S,9S)-9-ethyl-5-fluoro-9-hydroxy-4-methyl-10,13-dioxo-2,3,9,10,13,15-hexahydro-1H,12H-benzo[de]pyrano[3′,4′: 6,7]indolizino[1,2-b]quinolin-1-yl)-3-hydroxy-2,2-dimethylpropanamide] | 1.8
CC[C@@]1(O)C(=O)OCc2c1cc1n(c2=O)Cc2c-1nc1cc(F)c(C)c3c1c2[C@@H](NC(=O)C[C@H](C)O)CC3 [Compound 25] | 2.6
CC[C@@]1(O)C(=O)OCc2c1cc1n(c2=O)Cc2c-1nc1cc(F)c(C)c3c1c2[C@@H](NC(=O)C[C@@H](C)O)CC3 [Compound 26] | 2.9
CC[C@@]1(O)C(=O)OCc2c1cc1n(c2=O)Cc2c-1nc1cc(F)c(C)c3c1c2[C@@H](NC(=O)CCO)CC3 [Compound 27] | 3.1

Same assay, conditions: read-out: Jeko-1 EC50; Jeko-1 cells, 3000 cells/well; compounds added Day 1; CellTiter-Glo 2.0 luminescence read on Day 4 or 5

SMILES | EC50 [nM]
CC[C@@]1(O)C(=O)OCc2c1cc1n(c2=O)Cc2c-1nc1cc(F)c(C)c3c1c2[C@@H](NC(=O)C(C)(O)CO)CC3 (single isomer, unassigned) [Compound 4] | 1.2
CC[C@@]1(O)C(=O)OCc2c1cc1n(c2=O)Cc2c-1nc1cc(F)c(C)c3c1c2[C@@H](NC(=O)C(C)(O)CO)CC3 (single isomer, unassigned) [Compound 5] | 6.7
CC[C@@]1(O)C(=O)OCc2c1cc1n(c2=O)Cc2c-1nc1cc(F)c(C)c3c1c2[C@@H](NC(=O)C(F)(F)C(C)O)CC3 (single isomer, unassigned) [Compound 8] | 1.6
CC[C@@]1(O)C(=O)OCc2c1cc1n(c2=O)Cc2c-1nc1cc(F)c(C)c3c1c2[C@@H](NC(=O)C(CO)C(F)(F)F)CC3 (single isomer, unassigned) [Compound 11] | 5.3
CC[C@@]1(O)C(=O)OCc2c1cc1n(c2=O)Cc2c-1nc1cc(F)c(C)c3c1c2[C@@H](NC(=O)C(N)C(F)(F)F)CC3 (single isomer, unassigned) [Compound 15] | 2.9
CC[C@@]1(O)C(=O)OCc2c1cc1n(c2=O)Cc2c-1nc1cc(F)c(C)c3c1c2[C@@H](NC(=O)C(C)(N)C(F)(F)F)CC3 (single isomer, unassigned) [Compound 17] | 2
CC[C@@]1(O)C(=O)OCc2c1cc1n(c2=O)Cc2c-1nc1cc(F)c(C)c3c1c2[C@@H](NC(=O)C(N)(Cc1ccccc1)C(F)(F)F)CC3 (single isomer, unassigned) [Compound 18] | 44
CC[C@@]1(O)C(=O)OCc2c1cc1n(c2=O)Cc2c-1nc1cc(F)c(C)c3c1c2[C@@H](NC(=O)C(N)(Cc1ccccc1)C(F)(F)F)CC3 (single isomer, unassigned) [Compound 19] | 5.7
CC[C@@]1(O)C(=O)OCc2c1cc1n(c2=O)Cc2c-1nc1cc(F)c(C)c3c1c2[C@@H](NC(=O)C(CO)C1CC1)CC3 (single isomer, unassigned) [Compound 23] | 4.6
CC[C@@]1(O)C(=O)OCc2c1cc1n(c2=O)Cc2c-1nc1cc(F)c(C)c3c1c2[C@@H](NC(=O)C(F)CO)CC3 (single isomer, unassigned) [Compound 34] | 4.3
CC[C@@]1(O)C(=O)OCc2c1cc1n(c2=O)Cc2c-1nc1cc(F)c(C)c3c1c2[C@@H](NC(=O)C(F)CO)CC3 (single isomer, unassigned) [Compound 35] | 1.5
CC[C@@]1(O)C(=O)OCc2c1cc1n(c2=O)Cc2c-1nc1cc(F)c(C)c3c1c2[C@@H](NC(=O)C(C)(F)CO)CC3 (single isomer, unassigned) [Compound 37] | 3.1
CC[C@@]1(O)C(=O)OCc2c1cc1n(c2=O)Cc2c-1nc1cc(F)c(C)c3c1c2[C@@H](NC(=O)C(C)(CCO)C(F)F)CC3 (single isomer, unassigned) [Compound 40] | 4.6
